Data: ChEMBL document CHEMBL1201862, “PubChem BioAssay data set” (2004)
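Protocol summary: plate cells (96-well), add compound at 5 concentrations, incubate 48 h, interpolate endpoints linearly. Abbreviation: GI50, concentration required for 50% inhibition of growth.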 Activity calls are given as the source filed them. Cut-off read from the data, not from the text of the source: active = GI50 up to about 1.1 µM and inactive = higher.

Key:
Assay in all cases: inhibition of tumour cell growth, NCI panel, 48 h
[1] = tested on: SK-MEL-5
[2] = tested on: CCRF-CEM
[3] = tested on: SF-295
[4] = tested on: NCI-H23
[5] = tested on: CAKI-1
[6] = tested on: U-251
[7] = tested on: SK-MEL-2
[8] = tested on: HCT-15
[9] = tested on: COLO 205
[10] = tested on: SNB-19
[11] = tested on: OVCAR-4
[12] = tested on: TK-10
[13] = tested on: XF498
[14] = tested on: NCI-H226
[15] = tested on: OVCAR-8
[16] = tested on: A549
[17] = tested on: HCC 2998
[18] = tested on: K562
[19] = tested on: UACC-62
[20] = tested on: HOP-62
[21] = tested on: LXFL 529
[22] = tested on: RXF 631
[23] = tested on: M19-MEL
[24] = tested on: DLD-1
[25] = tested on: SN12C
[26] = tested on: RPMI-8226
[27] = tested on: 786-0
[28] = tested on: ACHN
[29] = tested on: SF-268
[30] = tested on: KM-20L2
[31] = tested on: UO-31
[32] = tested on: M14
[33] = tested on: NCI-H460
[34] = tested on: A498
[35] = tested on: IGROV-1
[36] = tested on: OVCAR-5
[37] = tested on: SW-620
[38] = tested on: DMS-273
[39] = tested on: LOX IMVI
[40] = tested on: SK-MEL-28
[41] = tested on: KM12
[42] = tested on: NCI-H522
[43] = tested on: Malme-3M
[44] = tested on: OVCAR-3
[45] = tested on: MOLT-4
[46] = tested on: HL-60
[47] = tested on: SF-539
[48] = tested on: DMS-114
[49] = tested on: SK-OV-3
[50] = tested on: HCT-116
[51] = tested on: EKVX
[52] = tested on: HT-29
[53] = tested on: UACC-257
[54] = tested on: RXF 393
[55] = tested on: SR
[56] = tested on: HOP-18
[57] = tested on: HOP-92
[58] = tested on: SNB-75
[59] = tested on: SNB-78
[60] = tested on: BT-549
[61] = tested on: MDA-N
[62] = tested on: NCI/ADR-RES
[63] = tested on: MDA-MB-435
[64] = tested on: MCF7
[65] = tested on: T47D
[66] = tested on: Hs-578T
[67] = tested on: DU-145
[68] = tested on: PC-3
[69] = tested on: MDA-MB-231

SMILES: O=C1C2Cc3ccccc3CN2C(=O)N1CCN1CCCC1 (stereo unspecified)
- GI50 [1]: > 100 µM (inactive)
- GI50 [2]: > 100 µM (inactive)
- GI50 [3]: > 100 µM (inactive)
- GI50 [4]: > 100 µM (inactive)
- GI50 [5]: 64.1 µM (inactive)
- GI50 [6]: > 100 µM (inactive)
- GI50 [7]: > 100 µM (inactive)
- GI50 [8]: > 100 µM
- GI50 [9]: > 100 µM (inactive)
- GI50 [10]: > 100 µM (inactive)
- GI50 [11]: > 100 µM (inactive)
- GI50 [12]: > 100 µM (inactive)
- GI50 [13]: > 100 µM (inactive)
- GI50 [14]: > 100 µM (inactive)
- GI50 [15]: > 100 µM (inactive)
- GI50 [16]: > 100 µM (inactive)
- GI50 [17]: > 100 µM (inactive)
- GI50 [18]: > 100 µM (inactive)
- GI50 [19]: > 100 µM (inactive)
- GI50 [20]: > 100 µM (inactive)
- GI50 [21]: > 100 µM (inactive)
- GI50 [22]: > 100 µM (inactive)
- GI50 [23]: > 100 µM (inactive)
- GI50 [24]: > 100 µM (inactive)
- GI50 [25]: > 100 µM (inactive)
- GI50 [26]: > 100 µM (inactive)
- GI50 [27]: > 100 µM (inactive)
- GI50 [28]: > 100 µM (inactive)
- GI50 [29]: > 100 µM (inactive)
- GI50 [30]: > 100 µM (inactive)
- GI50 [31]: > 100 µM (inactive)
- GI50 [32]: > 100 µM (inactive)
- GI50 [33]: > 100 µM (inactive)
- GI50 [34]: > 100 µM (inactive)
- GI50 [35]: > 100 µM (inactive)
- GI50 [36]: > 100 µM (inactive)
- GI50 [37]: > 100 µM (inactive)
- GI50 [38]: > 100 µM (inactive)
- GI50 [39]: > 100 µM (inactive)
- GI50 [40]: > 100 µM (inactive)
- GI50 [41]: > 100 µM (inactive)
- GI50 [42]: > 100 µM (inactive)
- GI50 [43]: > 100 µM (inactive)
- GI50 [44]: > 100 µM (inactive)
- GI50 [45]: > 100 µM (inactive)
- GI50 [46]: > 100 µM (inactive)
- GI50 [47]: > 100 µM (inactive)
- GI50 [48]: > 100 µM (inactive)

SMILES: Brc1ccc(-c2nnc(-c3nn(-c4ccccc4)c4nc5ccccc5nc34)o2)cc1
- GI50 [1]: 21.3 µM (inactive)
- GI50 [2]: 26.1 µM (inactive)
- GI50 [3]: > 100 µM (inactive)
- GI50 [4]: > 100 µM (inactive)
- GI50 [5]: > 100 µM (inactive)
- GI50 [6]: > 100 µM (inactive)
- GI50 [49]: > 100 µM (inactive)
- GI50 [7]: 60 µM (inactive)
- GI50 [9]: > 100 µM (inactive)
- GI50 [10]: > 100 µM (inactive)
- GI50 [11]: 79.3 µM (inactive)
- GI50 [12]: > 100 µM (inactive)
- GI50 [14]: > 100 µM (inactive)
- GI50 [50]: 27.8 µM (inactive)
- GI50 [51]: > 100 µM (inactive)
- GI50 [52]: > 100 µM (inactive)
- GI50 [15]: > 100 µM (inactive)
- GI50 [16]: 96.4 µM (inactive)
- GI50 [17]: > 100 µM (inactive)
- GI50 [53]: 92 µM (inactive)
- GI50 [18]: 27 µM (inactive)
- GI50 [19]: > 100 µM (inactive)
- GI50 [54]: > 100 µM (inactive)
- GI50 [20]: > 100 µM (inactive)
- GI50 [21]: 31.5 µM (inactive)
- GI50 [22]: > 100 µM (inactive)
- GI50 [24]: > 100 µM (inactive)
- GI50 [25]: > 100 µM (inactive)
- GI50 [26]: 30.5 µM (inactive)
- GI50 [27]: > 100 µM (inactive)
- GI50 [28]: > 100 µM (inactive)
- GI50 [29]: > 100 µM (inactive)
- GI50 [30]: > 100 µM (inactive)
- GI50 [31]: > 100 µM (inactive)
- GI50 [32]: > 100 µM (inactive)
- GI50 [33]: > 100 µM (inactive)
- GI50 [35]: > 100 µM (inactive)
- GI50 [55]: 27.8 µM (inactive)
- GI50 [36]: 68.9 µM (inactive)
- GI50 [37]: > 100 µM (inactive)
- GI50 [38]: 81.3 µM (inactive)
- GI50 [39]: > 100 µM (inactive)
- GI50 [40]: > 100 µM (inactive)
- GI50 [41]: > 100 µM (inactive)
- GI50 [56]: > 100 µM (inactive)
- GI50 [57]: > 100 µM (inactive)
- GI50 [42]: > 100 µM (inactive)
- GI50 [44]: 95.7 µM (inactive)
- GI50 [45]: 33.5 µM (inactive)
- GI50 [58]: > 100 µM (inactive)
- GI50 [46]: 27.3 µM (inactive)
- GI50 [59]: > 100 µM (inactive)
- GI50 [47]: > 100 µM (inactive)
- GI50 [48]: 26.7 µM (inactive)

SMILES: SC1=NC2(CCCCCC2)NN1c1ccccc1
- GI50 [1]: 93.3 µM (inactive)
- GI50 [60]: > 100 µM (inactive)
- GI50 [61]: 3.09 µM (inactive)
- GI50 [2]: 0.0664 µM (active)
- GI50 [3]: 0.0471 µM (active)
- GI50 [4]: 9.23 µM (inactive)
- GI50 [5]: 0.218 µM (active)
- GI50 [49]: > 100 µM (inactive)
- GI50 [8]: 0.168 µM
- GI50 [62]: > 100 µM (inactive)
- GI50 [9]: 0.104 µM (active)
- GI50 [10]: > 41 µM (inactive)
- GI50 [11]: 2.16 µM (inactive)
- GI50 [12]: > 28.6 µM (inactive)
- GI50 [14]: > 100 µM (inactive)
- GI50 [51]: 36.5 µM (inactive)
- GI50 [52]: 1.35 µM (inactive)
- GI50 [15]: 15.5 µM (inactive)
- GI50 [16]: 0.206 µM (active)
- GI50 [17]: 0.386 µM (active)
- GI50 [53]: 23.9 µM (inactive)
- GI50 [18]: 0.019 µM (active)
- GI50 [19]: 0.0208 µM (active)
- GI50 [63]: 3.61 µM (inactive)
- GI50 [21]: 0.0407 µM (active)
- GI50 [22]: 2.81 µM (inactive)
- GI50 [24]: 0.34 µM (active)
- GI50 [25]: > 27.3 µM (inactive)
- GI50 [26]: 0.769 µM (active)
- GI50 [27]: > 30.6 µM (inactive)
- GI50 [64]: 1.36 µM (inactive)
- GI50 [65]: 0.597 µM (active)
- GI50 [28]: 0.0785 µM (active)
- GI50 [29]: 0.184 µM (active)
- GI50 [66]: > 100 µM (inactive)
- GI50 [31]: 0.168 µM (active)
- GI50 [32]: 1.61 µM (inactive)
- GI50 [33]: 0.979 µM (active)
- GI50 [34]: 50.5 µM (inactive)
- GI50 [35]: > 39.4 µM (inactive)
- GI50 [55]: 28.8 µM (inactive)
- GI50 [36]: 1.91 µM (inactive)
- GI50 [67]: 0.0708 µM (active)
- GI50 [37]: 1.78 µM (inactive)
- GI50 [38]: 0.166 µM (active)
- GI50 [39]: 0.82 µM (active)
- GI50 [40]: 1.11 µM (active)
- GI50 [41]: 0.291 µM (active)
- GI50 [56]: > 100 µM (inactive)
- GI50 [68]: 29.6 µM (inactive)
- GI50 [57]: > 100 µM (inactive)
- GI50 [42]: > 100 µM (inactive)
- GI50 [43]: 16.4 µM (inactive)
- GI50 [44]: 9.91 µM (inactive)
- GI50 [69]: > 100 µM (inactive)
- GI50 [45]: 0.891 µM (active)
- GI50 [58]: > 66.8 µM (inactive)
- GI50 [46]: 0.0867 µM (active)
- GI50 [48]: 0.273 µM (active)
